Data: patent publication US9833492B2, “Combinations of a caspase inhibitor and an antiviral agent” (INSTITUT NATIONAL DE LA SANTE ET DE LA RECHERCHE MEDICALE …, priority 2007, dated 2017)
“Also recorded” adds a separate entry of the source. Like-named read-outs stand apart in the source and are kept apart here. Where a SMILES comes first, the peptide text is derived from it. [ ]: non-standard residue; d: D form. The star is where a group is joined. Sta = CC(C)C[C@H](N)[C@@H](O)CC(=O)O; Isovaleryl = CC(C)CC(=O)*; Cbz = O=C(OCc1ccccc1)*; CH2F = FC*

Legend:
[1] = test system: primary strains of the HIV-1 virus; test: replication of primary HIV-1 strains in CD4+ T lymphocytes (p24); type: cell-based; conditions: 1 μM
Protocol: FIG. 7: Graphic representation showing the effect of Q-VD-OPh on primary HIV-1 strains. In all cases (A, B and C), the CD4+ T lymphocytes were stimulated with concanavalin A and IL2 (stimulation being carried out before or during administration of Q-VD-OPh), […], immediately after infection and then 36 hours (d3) and 96 hours (d4) post-infection. A. Analysis by flow cytometry of viral replication in CD4+ T lymphocytes infected with the HIV-1Lai virus or with the serum of a chronic HIV+ patient (strain with X4/R5 dual tropism) and then cultivated in the absence or presence (+Q-VD) of Q-VD-OPh. The percentage of CD4+ cells infected by HIV was determined after intracellular labelling of the p24 viral antigen on the 5th day post-infection in the case of the HIV-Lai virus and on the 6th day post-infection in the case of the serum. […] B. Quantification of viral replication (on the left) and of cell death by measurement of mitochondrial depolarization (on the right) in CD4+ T lymphocytes infected with the serum of the chronic HIV+ patient. […]
The CD4^+ cells were incubated for 2 hours at 37° C. in the presence of 10 ng/ml of HIV-1 virus of strain Lai or 50 ng/ml of primary strains of the HIV-1 virus. […] The HIV p24 antigen, the control for the viral load, was measured in the cell culture supernatants by an ELISA test (Abbott). […]

[2] = test system: lymphocytes stimulated by 1 μg/ml of anti-CD-3; test: lymphocyte proliferation test with CFSE; type: cell-based, human
Protocol: FIG. 13. Analysis by flow cytometry of lymphocyte proliferation after 4 and 5 days' stimulation by 1 μg/ml of anti-CD-3, in the presence or absence of HIV antiproteases or of QVD-OPH.
The PBMCs are incubated in the presence of 1 μM of CFSE for 7 minutes at 37° C. The cells are taken up at 1·10^6/ml and then placed in culture and activated by an anti-CD3 at 1 μg/ml (Immunotech).
A lymphocyte proliferation study was conducted with the fluorescent probe CFSE, which allows cell division to be monitored.

[3] = test system: cells stimulated by anti-CD3; type: cell-based; conditions: human, 1 day, 50 μM
Protocol: FIG. 14. Analysis of the fall in the mitochondrial transmembrane potential (% Δφm low) by flow cytometry starting from cells stimulated by 1 μg/ml of anti-CD-3 in the presence or absence of different HIV antiproteases and of QVD-OPH.
(§1) In order to evaluate the change in the transmembrane potential of the inner mitochondrial membrane, the cells were labelled with a fluorescent probe DIOC6 (Molecular Probes, Invitrogen), at a concentration of 40 nM, and incubated for 15 minutes at 37° C. Viral replication was evaluated by internal labelling of the p24 viral protein using an anti-p24-PE antibody (KC-57, Coulter Corp, Beckman).
The cell toxicity was evaluated by analysis of the fall in the mitochondrial transmembrane potential (% Δφm low) using the probe DIOC6, by flow cytometry. The cells stimulated by anti-CD3 were analyzed in the same way on the day following activation.

[4] = test system: cells infected by HIV; conditions: cells infected by HIV (Petit et al., 2002), cited from earlier work
[5] = test system: HIV-1 virus; conditions: cited from earlier work
[6] = test system: apoptosis; conditions: Caserta et al., 2003; cited from earlier work
[7] = test system: Cytochrome c, Smac/Diablo and Endonuclease G in primary CD4+ T cells infected with HIV-Lai; test: immunoblot of release of apoptogenic mitochondrial factors after subcellular fractionation; type: cell-based, human; conditions: 10 μM, day 5 after infection
Protocol: FIG. 3: Immunoblot (Western blot) showing the effect of Q-VD-OPh on mitochondrial damage resulting from viral replication. Primary CD4+ T cells were infected with HIV-Lai and stimulated with a ConA/IL-2 cocktail and then treated or not treated with 10 μM of Q-VD-OPh (QVD) and/or 10 μM of pepstatin A (PA) immediately after stimulation and then 36 hours (day 3) and 96 hours (day 4) after infection. On the 5th day post-infection, the cells were fractionated into two parts: the membrane fraction and the cytosol fraction. The relocalization of the apoptogenic factors Cytochrome c (Cyt c), Smac/Diablo and Endonuclease G (EndoG) was then evaluated by immunotransfer (Western blot). The proteins Cytochrome c, Smac/Diablo and EndoG were detected using the antibodies indicated above. The proteins Cox IV and actin detected by means of the anti-subunit IV antibodies (clone 1068 Molecular Probe) and anti-actin antibodies (SIGMA), respectively, were used as the control for the fractionation procedure and as the control for the protein load of the gel, respectively. […]
The cytosol and mitochondrial fractions were obtained by the subcellular fractionation technique based on selective permeabilization by digitonin according to Foghsgaard et al. {Foghsgaard, 2001}. […] The protein concentration of the cytosol and mitochondrial fractions was determined by the bicinchoninic acid (BCA) method (Bio-Rad). […]

[8] = test system: HIV viral proteins; test: Example 2: immunoblot of HIV viral proteins in infected primary CD4 T cells; type: cell-based, HIV-1; conditions: versus control cultures
Protocol: FIG. 12. Analysis by immunoblot of the quantity of HIV viral proteins produced from extracts of primary CD4 T cells infected by the strain HIV-Lai in the presence or absence of different caspase inhibitors.
20 μg extracts of total lysate prepared with 1% NP40 were boiled for 5 minutes in Laemmli buffer containing 2% SDS and 10% 2-β-mercaptoethanol, then deposited on 10-20% polyacrylamide gradient gels (Invitrogen). After transfer of the proteins, the immunoblots were incubated with the following primary antibodies: anticaspase-3, anticaspase-8 and anticaspase-9 (Cell Signaling), anti-PARP (Pharmingen) and anti-Tubulin (Santa-Cruz).
Primary CD4 T cells were infected by the viral strain HIV-Lai and then stimulated by ConA/IL-2 in the presence or absence of Q-VD-OPH, Q-DEVD-OPH (casp-3 inhibitor), Q-LEDH-OPH (caspase-9 inhibitor) and Q-IETD-OPH (caspase-8 inhibitor) at 10 μM for each of the inhibitors. On days 5 and 7 post-infection, the internal p24 viral protein is measured by flow cytometry after fixation and permeabilization of the CD4 T cells. […] Death was evaluated by analysis of the fall in the mitochondrial transmembrane potential (% Δφm low) using the probe DIOC6 by flow cytometry (FIG. 11B). […] Extracts of primary CD4 T cells infected in the presence or absence of the different caspase inhibitors as well as QVD-OPH were analyzed by immunoblot for the HIV viral proteins (FIG. 12).

[9] = test system: viral strain HIV-Lai; test: Example 2: internal p24 viral protein by flow cytometry with different caspase inhibitors; type: cell-based, HIV-1; conditions: 10 μM
Protocol: (§2) FIG. 11. Analysis by flow cytometry of the internal viral protein p24 (A) and of the fall in the mitochondrial transmembrane potential (% Δφm low; B) on the 5th (d5) and 7th (d7) day post-infection in primary CD4+ T cells infected by the strain HIV-Lai, after stimulation by Concanavalin A and IL-2 and in the presence or absence of 10 μM of different caspase inhibitors.
as §1
(§3) Primary CD4 T cells were infected by the viral strain HIV-Lai and then stimulated by ConA/IL-2 in the presence or absence of Q-VD-OPH, Q-DEVD-OPH (casp-3 inhibitor), Q-LEDH-OPH (caspase-9 inhibitor) and Q-IETD-OPH (caspase-8 inhibitor) at 10 μM for each of the inhibitors. On days 5 and 7 post-infection, the internal p24 viral protein is measured by flow cytometry after fixation and permeabilization of the CD4 T cells. […] Death was evaluated by analysis of the fall in the mitochondrial transmembrane potential (% Δφm low) using the probe DIOC6 by flow cytometry (FIG. 11B). […]

[10] = test system: Primary CD4 T cells infected by the viral strain HIV-Lai; test: Example 2: death by fall in mitochondrial transmembrane potential in infected primary CD4 T cells; type: cell-based, human; conditions: 10 μM
Protocol: as §2, §1, §3

For `O=c1[nH]cnc2c1ncn2[C@H]1CC[C@@H](CO)O1` [ddl], the “replication of five primary HIV-1 isolates of R5 tropism” value [1] was “strong inhibition of viral replication”.

For `CC(C)(C)NC(=O)[C@@H]1CN(Cc2cccnc2)CCN1C[C@@H](O)C[C@@H](Cc1ccccc1)C(=O)N[C@H]1c2ccccc2C[C@H]1O` [Indinavir], the “lymphocyte proliferation (CFSE)” value ([2]; 50 μM, after 4 and 5 days' stimulation) was “block the proliferation” and the “fall in Δφm” value [3] was 70-80%.

In the case of `CC(C)(C)NC(=O)[C@@H]1C[C@@H]2CCCC[C@@H]2CN1C[C@@H](O)[C@H](Cc1ccccc1)NC(=O)[C@H](CC(N)=O)NC(=O)c1ccc2ccccc2n1` [Saquinavir], the “lymphocyte proliferation (CFSE)” value [2] is reported as “block the proliferation” and the “fall in Δφm” value [3] is reported as 70-80%.

In the case of `CC(C)[C@H](NC(=O)OCc1ccccc1)C(=O)N[C@@H](C)C(=O)N[C@@H](CC(=O)O)C(=O)CF` [z-VAD-fmk, N-benzyloxycarbonyl-Val-Ala-Asp-fluoromethyl ketone] (Cbz-Val-Ala-Asp-CH2F), the “apoptotic phenotype (condensation and fragmentation of the nuclear chromatin)” value [4] is given as “prevents the apoptotic phenotype”, the “prevention of mitochondrial depolarization, apoptosis or cell death” value [4] is given as “does not inhibit apoptosis” and the “prevention of mitochondrial depolarization, apoptosis or cell death” value ([4]; listed as zVAD-kmk) is given as “does not prevent either mitochondrial depolarization or cell death”. For the same compound, the “effect on viral replication” value ([5]; T-leukaemia cells (CEM) or PBMC exposed to HIV-1 (Chinnaiyan et al., 1997)) was “increasing viral replication”, the endogenous viral replication ([5]; activated PBMCs from HIV-1-positive asymptomatic patients (Chinnaiyan et al., 1997)) was “stimulating endogenous viral replication” and the “inhibition of viral replication” value ([5]; in vitro (Gandhi et al., 1998; Petit et al., 2002)) was “nor does it inhibit viral replication; also recorded: did not enable viral replication to be inhibited”. For the same compound, the inhibition of apoptosis [6] was “inhibits apoptosis in a dose-dependent manner”.

For `COC(=O)CC(NC(=O)OC(C)(C)C)C(=O)CF` [Boc-D-fmk, tert-butyloxycarbonyl-Asp(O-methyl)-fluoromethyl ketone], the inhibition of apoptosis [6] is given as “inhibits apoptosis in a dose-dependent manner”.

For `CC(C)CC(=O)N[C@H](C(=O)N[C@H](C(=O)N[C@@H](CC(C)C)[C@@H](O)CC(=O)N[C@@H](C)C(=O)N[C@@H](CC(C)C)[C@@H](O)CC(=O)O)C(C)C)C(C)C` [pepstatin A] (Isovaleryl-VV[Sta]A[Sta]-OH), the “mitochondrial damage: apoptogenic factors Cytochrome C, Smac/Diablo and EndoG in the cytosol fraction” value [7] was “no effect”.

In the case of Q-DEVD-OPH, the “quantity of viral proteins produced” value [8] is reported as “slightly lower”, the “inhibition of viral replication (p24)” value ([9]; d5) is reported as “weak effect” and the “inhibition of viral replication (p24)” value ([9]; d7) is reported as “absence of protection”. The “death, fall in the mitochondrial transmembrane potential (% Δφm low)” value [10] was “absence of effect”.
